Source: paper PMC7355801, “Synthesis, Cyclooxygenases Inhibition Activities and Interactions with BSA of N-substituted 1H-pyrrolo[3,4-c]pyridine-1,3(2H)-diones Derivatives” (Molecules, 2020)
Blank lines part the entries; values can stand above or below the molecule they belong to.

Tests used:
[1] = biological target: T1, bovine serum albumin (BSA) (Bos taurus, UniProt P02769); experiment: intrinsic fluorescence quenching, excitation […] nm; type: binding; conditions: 298 K, pH 7.4, no site marker
T1 construct: gene ALB; mature serum albumin, 583 residues, monomer

COX-1 = biological target: T2, COX-1 (Ovis aries, UniProt P05979); experiment: colorimetric COX peroxidase inhibition kit, […] nm; type: biochemical; conditions: read-out: Cyclooxygenase Inhibition Assay IC50 [μM] / COX-1
T2 construct: gene PTGS1; homodimer
T2 sequence (P05979 25-600): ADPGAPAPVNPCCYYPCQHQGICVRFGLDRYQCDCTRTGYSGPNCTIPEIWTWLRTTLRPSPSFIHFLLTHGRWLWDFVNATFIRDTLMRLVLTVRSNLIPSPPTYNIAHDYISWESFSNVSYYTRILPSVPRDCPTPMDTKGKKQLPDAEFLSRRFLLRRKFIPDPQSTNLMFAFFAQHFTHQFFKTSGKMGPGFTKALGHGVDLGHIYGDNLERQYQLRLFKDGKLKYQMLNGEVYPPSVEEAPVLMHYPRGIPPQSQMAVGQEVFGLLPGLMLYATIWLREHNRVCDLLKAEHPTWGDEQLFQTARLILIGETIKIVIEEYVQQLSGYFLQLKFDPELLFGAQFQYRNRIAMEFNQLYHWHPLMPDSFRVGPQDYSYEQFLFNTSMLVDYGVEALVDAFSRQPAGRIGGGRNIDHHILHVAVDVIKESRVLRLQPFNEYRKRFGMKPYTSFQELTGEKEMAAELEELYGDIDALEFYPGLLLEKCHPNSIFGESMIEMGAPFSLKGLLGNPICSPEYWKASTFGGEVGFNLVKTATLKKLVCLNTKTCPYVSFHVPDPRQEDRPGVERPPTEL

T1 sequence (P02769 25-607): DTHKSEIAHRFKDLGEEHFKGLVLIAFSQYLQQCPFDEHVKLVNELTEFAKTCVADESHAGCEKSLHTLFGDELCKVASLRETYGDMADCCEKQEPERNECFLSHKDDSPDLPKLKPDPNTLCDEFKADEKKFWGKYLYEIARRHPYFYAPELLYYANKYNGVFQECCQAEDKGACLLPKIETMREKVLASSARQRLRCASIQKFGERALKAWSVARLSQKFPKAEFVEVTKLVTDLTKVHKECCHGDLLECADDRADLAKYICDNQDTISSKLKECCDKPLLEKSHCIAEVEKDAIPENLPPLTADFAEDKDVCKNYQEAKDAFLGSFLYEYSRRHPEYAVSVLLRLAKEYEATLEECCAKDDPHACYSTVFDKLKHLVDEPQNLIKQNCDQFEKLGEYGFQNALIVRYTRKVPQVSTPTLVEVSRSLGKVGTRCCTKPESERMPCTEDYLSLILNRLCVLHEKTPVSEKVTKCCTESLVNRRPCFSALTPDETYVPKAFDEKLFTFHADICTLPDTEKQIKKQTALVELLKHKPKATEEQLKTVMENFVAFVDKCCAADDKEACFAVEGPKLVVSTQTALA

SMILES: COc1nc(C)cc2c1C(=O)N(CCN1CCOCC1)C2=O [E]
Double log / Kb × 10^3 [dm^3.mol^-1] [1]: 6.24 × 10^3 dm^3·mol^−1
IC50 (COX-1): 99.2 µM

SMILES: COc1ccccc1N1CCN(CN2C(=O)c3cc(C)n(C)c(=O)c3C2=O)CC1 [C]
Double log / Kb × 10^3 [dm^3.mol^-1] [1]: 11.51 × 10^3 dm^3·mol^−1
IC50 (COX-1): 95.8 µM

The remaining molecules from weak to strong by IC50 (COX-1), led by results:

Double log / Kb × 10^3 [dm^3.mol^-1] [1]: 8.32 × 10^3 dm^3·mol^−1
IC50 (COX-1): 93.2 µM
SMILES: Cc1cc2c(c(=O)n1C)C(=O)N(CN1CCN(c3cccc(C(F)(F)F)c3)CC1)C2=O [B]

Double log / Kb × 10^3 [dm^3.mol^-1] [1]: 5.37 × 10^3 dm^3·mol^−1
IC50 (COX-1): 81.6 µM
SMILES: Cc1cc2c(c(=O)n1C)C(=O)N(CN1CCN(c3ccccc3)CC1)C2=O [A, 5,6-dimethyl-4-oxo-2-[(4-phenyl-1-piperazinyl)methyl]-1H-pyrrolo[3.4-c]pyridine-1,3(2H)-dione]

Double log / Kb × 10^3 [dm^3.mol^-1] [1]: 4.82 × 10^3 dm^3·mol^−1
IC50 (COX-1): 76.6 µM
SMILES: COc1nc(C)cc2c1C(=O)N(CN1CCCC1)C2=O [D, 4-Methoxy–N-[1-(N-pyrrolidine)-methyl]-6-methyl-1H-pyrrolo[3.4-c]pyridine-1,3(2H)-dione]
